# Assay results from ChEMBL document CHEMBL1154027, “Imidazopyridine derivatives as potent and selective Polo-like kinase (PLK) inhibitors” (Bioorg Med Chem Lett, 2009).
# How the values were obtained:
# [1] = Lipophilicity, Log D of the compound; format: physicochemical; settings: octanol/water
# [2] = Plasma concentration in F344/NJcl-rnu nude rat at 0.45 mg/kg after 48 hrs; format: ADME, organism-based; design: dose 0.45 mg/kg
# [3] = Plasma concentration in F344/NJcl-rnu nude rat at 0.60 mg/kg after 48 hrs; format: ADME, organism-based; design: dose 0.6 mg/kg; settings: 0.6 mg/kg
Compound,logD [1],concentration at 48 h [2],concentration at 48 h [3]
NC(=O)c1sc(-n2cnc3ccccc32)cc1OCc1ccccc1C(F)(F)F,4.6,,
C[C@@H](Oc1cc(-c2cnc3ccccn23)sc1C(N)=O)c1ccc(CNC(C)(C)C)cc1C(F)F,2.6,,
C[C@@H](Oc1cc(-c2cnc3ccccn23)sc1C(N)=O)c1ccc(CNC(C)(C)C)cc1OC(F)F,2.7,50 nM,80 nM
C[C@@H](Oc1cc(-c2cnc3ccccn23)sc1C(N)=O)c1ccc(CN2CCS(=O)(=O)CC2)cc1Cl,3.2,,
C[C@@H](Oc1cc(-c2cnc3ccccn23)sc1C(N)=O)c1ccc(CNC(C)(C)C)cc1F,2.2,,
NC(=O)c1sc(-c2cnn3ccccc23)cc1OCc1ccccc1C(F)(F)F,4.8,,
C[C@@H](Oc1cc(-c2cnc3ccccn23)sc1C(N)=O)c1ccccc1Cl,4.8,,
C[C@@H](Oc1cc(-c2cnc3ccccn23)sc1C(N)=O)c1ccccc1CO,3.2,,
NC(=O)c1sc(-c2cnc3ccccn23)cc1OCc1ccccc1Cl,4.1,,
C[C@@H](Oc1cc(-c2cnc3ccc(CO)cn23)sc1C(N)=O)c1ccccc1Cl,4.2,,
NC(=O)c1sc(-c2cnc3ccccn23)cc1OCc1ccccc1C(F)(F)F,4.2,,
CC(Oc1cc(-c2cnc3cc(CO)ccn23)sc1C(N)=O)c1ccccc1Cl (racemic),4.1,,

# Second part, the compound after the results:
logD [1],concentration at 48 h [2],concentration at 48 h [3],Compound
2.8,,,C[C@@H](Oc1cc(-c2cnc3ccccn23)sc1C(N)=O)c1ccc(CN2CCNC(=O)C2)cc1Cl
2.8,,,CCNCc1ccc([C@@H](C)Oc2cc(-c3cnc4ccccn34)sc2C(N)=O)c(Cl)c1
2.9,,,C[C@@H](Oc1cc(-c2cnc3ccccn23)sc1C(N)=O)c1ccc(CNC(C)(C)C)cc1Cl
2.1,,,C[C@@H](Oc1cc(-c2cnc3ccccn23)sc1C(N)=O)c1ccc(CNCCCO)cc1Cl
1.9,,,CNCc1ccc([C@@H](C)Oc2cc(-c3cnc4ccccn34)sc2C(N)=O)c(Cl)c1
2.8,,,C[C@@H](Oc1cc(-c2cnc3ccccn23)sc1C(N)=O)c1ccc(CN2CCN(C)CC2)cc1Cl
3.7,,,CC(Oc1cc(-c2cnc3ccccn23)sc1C(N)=O)c1cc(CO)ccc1Cl (stereo unspecified)
3.8,,,C[C@@H](Oc1cc(-c2cnc3ccccn23)sc1C(N)=O)c1ccc(CO)cc1Cl
2.3,,,CC(C)NCc1ccc([C@@H](C)Oc2cc(-c3cnc4ccccn34)sc2C(N)=O)c(Cl)c1
3.6,,,C[C@@H](Oc1cc(-c2cnc3ccccn23)sc1C(N)=O)c1ccc(CNC2CC2)cc1Cl
3.3,,,C[C@@H](Oc1cc(-c2cnc3ccccn23)sc1C(N)=O)c1ccc(CN2CCC(O)C2)cc1Cl (stereo partly specified)
2.4,,,C[C@@H](Oc1cc(-c2cnc3ccccn23)sc1C(N)=O)c1ccc(CNCCO)cc1Cl
2.9,,,C[C@@H](Oc1cc(-c2cnc3ccccn23)sc1C(N)=O)c1ccc(CN(C)C)cc1Cl
2.9,,,C[C@@H](Oc1cc(-c2cnc3ccccn23)sc1C(N)=O)c1ccc(CNC(C)(C)CO)cc1Cl
3.7,,,C[C@@H](Oc1cc(-c2cnc3ccccn23)sc1C(N)=O)c1ccc(CN2CCC(F)CC2)cc1Cl
3.3,,,C[C@@H](Oc1cc(-c2cnc3ccccn23)sc1C(N)=O)c1ccc(CN2CCC(O)CC2)cc1Cl
3.5,,,C[C@@H](Oc1cc(-c2cnc3ccccn23)sc1C(N)=O)c1ccc(CNC2CCCC2)cc1Cl
